Measurements from ChEMBL document CHEMBL1240301, “Assignment of protein function in the postgenomic era” (Nat Chem Biol, 2005).

Legend:
[1] = target: Cyclin-dependent kinase 2 (Homo sapiens, UniProt P24941, F80G); assay: Inhibition of CDK2 F80G mutant
[2] = Inhibition of c-Fyn T339G mutant
[3] = target: Calcium/calmodulin-dependent protein kinase type II subunit alpha (Homo sapiens, UniProt Q9UQM7, F89G); assay: Inhibition of CAMK2 F89G mutant
[4] = Inhibition of wild type CAMK2
[5] = target: Cyclin-dependent kinase 2 (Homo sapiens, UniProt P24941); assay: Inhibition of wild type CDK2
[6] = Inhibition of wild-type v-Src
[7] = Inhibition of v-Src kinase I338G mutant
[8] = target: Tyrosine-protein kinase ABL1 (Homo sapiens, UniProt P00519, T315A); assay: Inhibition of c-Abl T315A mutant
[9] = target: Tyrosine-protein kinase Fyn (Homo sapiens, UniProt P06241); assay: Inhibition of wild type c-Fyn
[10] = target: Tyrosine-protein kinase ABL1 (Homo sapiens, UniProt P00519); assay: Inhibition of wild type c-Abl
Chain of Tyrosine-protein kinase ABL1 (Homo sapiens, UniProt P00519) (P00519 whole entry): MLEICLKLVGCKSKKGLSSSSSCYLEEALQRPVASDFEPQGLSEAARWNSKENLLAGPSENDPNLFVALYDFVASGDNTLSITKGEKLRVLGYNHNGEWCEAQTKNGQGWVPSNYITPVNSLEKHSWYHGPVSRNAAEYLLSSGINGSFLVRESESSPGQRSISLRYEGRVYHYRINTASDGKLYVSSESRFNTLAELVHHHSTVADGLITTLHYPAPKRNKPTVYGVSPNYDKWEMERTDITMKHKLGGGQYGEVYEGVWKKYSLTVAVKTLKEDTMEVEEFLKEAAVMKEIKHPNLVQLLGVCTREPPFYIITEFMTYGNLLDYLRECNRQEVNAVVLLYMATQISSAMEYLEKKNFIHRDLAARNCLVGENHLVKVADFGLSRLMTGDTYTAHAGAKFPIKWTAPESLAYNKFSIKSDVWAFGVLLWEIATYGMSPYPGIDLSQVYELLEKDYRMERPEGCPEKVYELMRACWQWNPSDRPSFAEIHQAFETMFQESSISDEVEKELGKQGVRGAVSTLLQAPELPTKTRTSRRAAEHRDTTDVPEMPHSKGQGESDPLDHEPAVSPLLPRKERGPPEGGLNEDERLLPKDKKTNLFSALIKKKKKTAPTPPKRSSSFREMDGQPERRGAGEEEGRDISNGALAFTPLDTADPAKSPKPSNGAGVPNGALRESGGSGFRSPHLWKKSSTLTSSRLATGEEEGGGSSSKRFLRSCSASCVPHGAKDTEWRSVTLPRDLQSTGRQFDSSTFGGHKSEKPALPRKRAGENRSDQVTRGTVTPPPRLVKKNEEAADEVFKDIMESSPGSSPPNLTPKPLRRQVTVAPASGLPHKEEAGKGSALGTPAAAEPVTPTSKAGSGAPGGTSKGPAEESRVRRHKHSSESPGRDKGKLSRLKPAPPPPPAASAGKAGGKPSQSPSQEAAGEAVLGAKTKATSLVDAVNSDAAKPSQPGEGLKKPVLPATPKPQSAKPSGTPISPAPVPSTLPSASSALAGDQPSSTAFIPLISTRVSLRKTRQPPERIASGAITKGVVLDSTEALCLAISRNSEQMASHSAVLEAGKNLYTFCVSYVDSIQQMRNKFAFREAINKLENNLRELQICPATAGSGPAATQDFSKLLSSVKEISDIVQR

Chain of Calcium/calmodulin-dependent protein kinase type II subunit alpha (Q9UQM7 whole entry F89G): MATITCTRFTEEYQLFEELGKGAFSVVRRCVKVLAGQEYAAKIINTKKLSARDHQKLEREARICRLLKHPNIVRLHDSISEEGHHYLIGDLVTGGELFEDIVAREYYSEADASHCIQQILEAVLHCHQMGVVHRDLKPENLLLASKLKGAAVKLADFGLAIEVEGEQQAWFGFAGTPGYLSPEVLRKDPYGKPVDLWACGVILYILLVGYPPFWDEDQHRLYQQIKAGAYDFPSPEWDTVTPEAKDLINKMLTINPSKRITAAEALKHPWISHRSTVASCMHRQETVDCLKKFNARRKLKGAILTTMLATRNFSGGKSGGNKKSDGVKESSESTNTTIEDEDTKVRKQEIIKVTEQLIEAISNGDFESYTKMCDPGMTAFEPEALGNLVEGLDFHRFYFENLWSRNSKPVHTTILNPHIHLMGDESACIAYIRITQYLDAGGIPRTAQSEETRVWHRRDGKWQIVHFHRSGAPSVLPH
Chain of Tyrosine-protein kinase Fyn (P06241 whole entry): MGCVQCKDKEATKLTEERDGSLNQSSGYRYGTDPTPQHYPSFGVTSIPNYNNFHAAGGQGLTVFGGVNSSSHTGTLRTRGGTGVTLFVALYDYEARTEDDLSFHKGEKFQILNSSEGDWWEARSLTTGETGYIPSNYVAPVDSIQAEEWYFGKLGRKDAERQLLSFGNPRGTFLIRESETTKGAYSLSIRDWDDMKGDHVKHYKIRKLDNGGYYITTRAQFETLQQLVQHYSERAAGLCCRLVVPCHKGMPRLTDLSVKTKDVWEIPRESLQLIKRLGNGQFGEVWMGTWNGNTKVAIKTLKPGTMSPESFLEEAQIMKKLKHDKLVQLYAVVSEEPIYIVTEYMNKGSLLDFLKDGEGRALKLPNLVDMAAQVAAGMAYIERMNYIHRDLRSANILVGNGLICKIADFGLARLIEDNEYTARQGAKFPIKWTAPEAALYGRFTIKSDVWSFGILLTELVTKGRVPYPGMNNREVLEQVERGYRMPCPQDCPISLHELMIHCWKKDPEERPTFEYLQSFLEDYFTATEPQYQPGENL
Chain of Tyrosine-protein kinase ABL1 (Homo sapiens, UniProt P00519, T315A) (P00519 whole entry T315A): as the sequence (P00519 whole entry) above, with T315A counted along it

IC50 [1] [nM]	IC50 [2] [nM]	IC50 [3] [nM]	IC50 [4] [nM]	IC50 [5] [nM]	IC50 [6] [nM]	IC50 [7] [nM]	IC50 [8] [nM]	IC50 [9] [nM]	IC50 [10] [nM]	SMILES
15	6.5	97	22000	18000	1000	1.5				CC(C)(C)n1nc(-c2cccc3ccccc23)c2c(N)ncnc21
	3.2		24000	29000	28000	4.3	120	1000	3400	CC(C)(C)n1nc(Cc2cccc3ccccc23)c2c(N)ncnc21
